Laboratory results taken from ChEMBL document CHEMBL1141163, “QSAR studies of copper azamacrocycles and thiosemicarbazones: MM3 parameter development and prediction of biological properties” (J Med Chem, 2005).

Assay: Partition coefficient (logP)
Type: physicochemical
Settings: octanol/water

- logP: -2.29
Substance: Copper(II) Complex
